Tests used:
[1] = Safety of His ingestion: general properties, hematology, blood biochemistry; format: in vivo, human; conditions: ingestion of His (1.65 g, single or 14 days) in test subjects
[2] = test system: males feeling decrease in the quality of sleep and fatigue; experiment: Crossover test of histidine ingestion for 14 days (POMS, VAS questionnaires, CogHealth); format: in vivo, human
Text: Twenty males of 45 years old to less than 65 years old, who received total evaluation of not less than 17 points in the “self-diagnosis fatigue questionnaire” (Fatigue Science Laboratory Inc.), felt decrease in the quality of sleep (generally PSQI≥6), and obtained fatigue factor T scores of not less than 60 points in POMS, performed in advance, were selected, and randomly divided into 2 groups (10 per group). A crossover test, including ingesting histidine and control food (equal volume of cellulose) each for 14 days, was performed in each group. As shown in the experiment protocol of FIG. 9A, the test subjects ingested capsules containing 1.65 g of L-histidine as a daily ingestion amount (5 capsules (hard capsule #2 WHITE OP B/C) containing 0.33 g of L-histidine alone), or control sample capsules (5 capsules containing equal volume of cellulose) for 14 days. After the completion of 14 day ingestion, a 14 day resting period was taken. After the resting period, they ingested the capsules not ingested before the resting period. On the initial day and the day after completion of the capsule ingestion period, the test subjects answered POMS and the VAS questionnaires (fatigue, depression, vague sense, drowsiness, clear thinking, motivation, attentiveness, concentration) relating to fatigue, and cognitive function measurement task CogHealth (under higher difficulty conditions by simultaneously including mental arithmetic task as well) to measure intellectual performance which is one of the fatigue indices. Furthermore, they answered VAS questionnaires after completion of CogHealth.

[3] = test system: males feeling decrease in the quality of sleep and fatigue; experiment: Single histidine ingestion (VAS questionnaires, CogHealth); format: in vivo, human
Text: Twenty males of 45 years old to less than 65 years old, who received total evaluation of not less than 17 points in the “self-diagnosis fatigue questionnaire” (Fatigue Science Laboratory Inc.), felt decrease in the quality of sleep (generally PSQI≥6), and obtained fatigue factor T scores of not less than 60 points in POMS performed in advance, were selected, and randomly divided into 2 groups (10 per group). The effect of single ingestion of histidine and control food (equal volume of cellulose) was compared in each group. As shown in the experiment protocol of FIG. 10A, the test subjects took the same meals for 3 days before the experiment, fasted for 10 to for 14 hr, and ingested capsules containing 1.65 g of L-histidine as a single ingestion amount (5 capsules (hard capsule #2 WHITE OP B/C) containing 0.33 g of L-histidine alone), or control sample capsules (5 capsules containing equal volume of cellulose). Before and 1 hr after ingestion of capsules, the test subjects answered the VAS questionnaires (fatigue, depression, vague sense, drowsiness, clear thinking, motivation, attentiveness, concentration) relating to fatigue, and cognitive function measurement task CogHealth (under higher difficulty conditions by simultaneously including mental arithmetic task as well) to measure intellectual performance which is one of the fatigue indices. Furthermore, they answered VAS questionnaires after completion of CogHealth.

CD2F1 mice = experiment: Y-maze test, short-working memory (alternation behavior) after 48 hr burden of insufficient sleep; format: in vivo, mouse; conditions: His:VB6=360:1; His 900, VB6 2.5 mg/kg/day one week plus oral dose; FIG. 7B
Method: Using CD2F1 mice (9-10-week-old) in the group constitution shown in Table 4, the test was performed as shown in the experiment protocol (FIG. 4A). The His group and His+VB6 group were allowed to drink each solution freely for one week so that the ingestion amount of His would be 900 mg/kg/day, and the ingestion amount of the VB6 group and the His+VB6 group would be […]. As the feed, a feed having the composition of Table 5 was used. After ingestion of His or VB6, or both for one week, insufficient sleep was burdened for 48 hr by filling water in the breeding cage at the depth of 0.5 cm. The burden was released at 6 hr from the start of the light phase, and the mice were placed back in the home cage and allowed to rest for 6 hr. […] A Y-maze test was performed at 3 hr from the start of the dark phase, and short-working memory was measured. […] A Y-maze test was performed at 3 hr from the start of the dark phase, and short-working memory was measured. […] A Y-maze test was performed at 3 hr from the start of the dark phase, and short-working memory was measured. […] A Y-maze test was performed at 3 hr from the start of the dark phase, and short-working memory was measured. […]

[4] = 14 days, after completion of CogHealth, p<0.05, FIG. 9E
[5] = 14 days, before CogHealth, vs control food, p<0.05, FIG. 9C
[6] = single ingestion, after completion of CogHealth
[7] = single ingestion, before CogHealth, p<0.05, FIG. 10B

For N[C@@H](Cc1c[nH]cn1)C(=O)O [His, histidine], the “variation in general properties, hematology, and blood biochemistry” value [1] was “did not show problematic variation”, the “fatigue factor scores of POMS” value ([2]; 1.65 g L-histidine daily for 14 days vs control food, paired t-test p<0.05, FIG. 9B) was “significantly decreased” and the “reaction time of cognitive function measurement task” value ([2]; 14 days, CogHealth, vs control food, FIG. 9D) was “shortened”. For the same compound, the “reaction time of delayed recall task” value ([2]; 14 days, CogHealth, vs control food, p<0.05, FIG. 9D) was “significantly decreased”, the “VAS sense of attentiveness” value [2, 4] was “significantly increased” and the “VAS sense of depression” value [2, 4] was “significantly decreased”. For the same compound, the “VAS sense of motivation” value [2, 4] was “significantly increased”, the “VAS sense of attentiveness” value [2, 5] was “significantly increased” and the “VAS sense of clear thinking” value [2, 5] was “significantly increased”. The “VAS sense of motivation” value [2, 5] was “significantly increased”, the “work time in 5 kinds of brain function measurement indices” value ([3]; single 1.65 g L-histidine, 1 hr after ingestion, vs control food) was “shortened” and the “VAS sense of concentration” value [3, 6] was “tended to increase”. The “VAS sense of depression” value [3, 6] was “tended to decrease”, the VAS vague sense ([3]; single ingestion, after completion of CogHealth, p<0.05) was “significantly decreased” and the “VAS sense of concentration” value ([3]; single ingestion, before CogHealth, FIG. 10B) was “tended to increase”. The “VAS sense of attentiveness” value [3, 7] was “significantly increased”, the “VAS sense of clear thinking” value [3, 7] was “significantly increased” and the “alternation behavior as compared to the VB6 group” value (CD2F1 mice) was “significant increase”.

— patent US10369163B2, “Anti-fatigue composition” (AJINOMOTO CO., INC., priority 2013, dated 2019)
